{
  "source": "paper PMC9944328",
  "about": "(Nature Communications, 2023)",
  "key": {"SSTR3": {"biological_target": "T1, SSTR3 (Homo sapiens, UniProt P32745)", "T1 construct": "The human full-length SSTRs and mutants were cloned into the pcDNA3.1+ vector; expressed in transfected cells; host or cells: HEK293 (ATCC, CRL-1573)", "assay": "SSTRs Gi-mediated cAMP inhibition, GloSensor, HEK293 (SSTR3 wild-type)", "assay_type": "cell-based", "set-up": "Bottom / Top / Span / Top (best-fit): unit not given here", "details": "for Emax: HEK293; for LogEC50 (best-fit) / Top (best-fit): cAMP inhibition", "protocol": "The levels of the intracellular 3′, 5′-cyclic AMP (cAMP) were measured by the GloSensor cAMP assay (Promega) as described in the previous studies[28],[41] which has been widely used. The human full-length SSTRs and mutants were cloned into the pcDNA3.1+ vector with a HA signal sequence followed by a Flag tag at the N-terminus. […] Cells were then co-transfected with SSTR wild-type or mutants and GloSensor plasmids. After 24 h of transfection, the cells were dissociated with TrypLE™ Express Enzyme (1X) (Thermo Fisher Scientific) and collected by centrifugation at 500 × g for 5 min. Then the collected cells were suspended in Hank’s balanced salt solution [HBSS (Thermo Fisher Scientific)] supplemented with […] potassium salt solution (YEASEN), and then the suspension cells were seeded into 96-well plates with 90 μl/well. After incubating at room temperature for 40 min, 5 μM forskolin and ligands diluted in HBSS were added to each well and the plates were incubated at room temperature for 15 min. […] signals were measured using the Synergy H1 microplate reader (BioTek) and the data presented are means of at least three independent experiments."}, "SSTR2": {"system": "SSTR2", "assay": "β-arrestin recruitment with co-transfection of GRK2", "assay_type": "cell-based, human", "details": "N276(6.55)A and F294(7.35)A with GRK2 co-transfection"}, "[1]": {"details": "Suppl. Tables 4/5, SSTR3-WT, n=5"}, "[2]": {"details": "best-fit, SSTR3 WT-1 (F296D set)"}, "[3]": {"details": "best-fit, SSTR3 WT-1 (H192T set)"}, "[4]": {"details": "best-fit, SSTR3 WT-1 (M193I set)"}, "[5]": {"details": "best-fit, SSTR3 WT-1 (N101V set)"}, "[6]": {"details": "best-fit, SSTR3 WT-2 (F296D set)"}, "[7]": {"details": "best-fit, SSTR3 WT-2 (H192T set)"}, "[8]": {"details": "best-fit, SSTR3 WT-2 (M193I set)"}, "[9]": {"details": "best-fit, SSTR3 WT-2 (N101V set)"}, "[10]": {"details": "best-fit, SSTR3 WT-3 (F296D set)"}, "[11]": {"details": "best-fit, SSTR3 WT-3 (M193I set)"}, "[12]": {"details": "best-fit, SSTR3 WT-3 (N101V set)"}},
  "note": "Where two headings read alike, the source gives them in different places.",
  "data": [
    {"smiles": "C[C@@H](O)[C@@H]1NC(=O)[C@H](CCCCN)NC(=O)[C@@H](Cc2c[nH]c3ccccc23)NC(=O)[C@H](Cc2ccccc2)NC(=O)[C@@H](NC(=O)[C@H](N)Cc2ccccc2)CSSC[C@@H](C(=O)N[C@H](CO)[C@@H](C)O)NC1=O", "note": "[octreotide]", "values": [
      {"measurement": "Emax", "setting": "SSTR3; [1]", "value": "99.8 ± 8.21", "unit": "%"},
      {"measurement": "LogEC50 (best-fit)", "setting": "SSTR3; SSTR3-WT, run 1", "value": -7.262},
      {"measurement": "Top (best-fit)", "setting": "SSTR3; SSTR3-WT, run 1", "value": 103},
      {"measurement": "LogEC50 (best-fit)", "setting": "SSTR3; SSTR3-WT, run 2", "value": -7.521},
      {"measurement": "Top (best-fit)", "setting": "SSTR3; SSTR3-WT, run 2", "value": 99.85},
      {"measurement": "LogEC50 (best-fit)", "setting": "SSTR3; SSTR3-WT, run 3", "value": -7.466},
      {"measurement": "Top (best-fit)", "setting": "SSTR3; SSTR3-WT, run 3", "value": 98.24},
      {"measurement": "LogEC50 (best-fit)", "setting": "SSTR3; SSTR3-WT, run 4", "value": -8.231},
      {"measurement": "Top (best-fit)", "setting": "SSTR3; SSTR3-WT, run 4", "value": 100.3},
      {"measurement": "β-arrestin recruitment with GRK2", "setting": "SSTR2", "value": "nearly abolished"}
    ]},
    {"smiles": "N#Cc1cccc(-c2ccc3ncc(-c4cc(F)cc(F)c4)c(N4CCC(N)CC4)c3c2)c1O", "note": "[paltusotine]", "values": [
      {"measurement": "EC50", "setting": "SSTR3", "value": 2.6, "unit": "nM"},
      {"measurement": "Emax", "setting": "SSTR3; [1]", "value": "36.7 ± 11.7", "unit": "%"},
      {"measurement": "Fold of WT", "setting": "SSTR3; Suppl. Tables 4/5, SSTR3-WT", "value": 1},
      {"measurement": "EC50", "setting": "SSTR3; Suppl. Tables 4/5, SSTR3-WT, n=5, read-out: EC50", "value": "63.8 ± 1.33", "unit": "nM"},
      {"measurement": "Bottom", "setting": "SSTR3; [2]", "value": 7.289},
      {"measurement": "LogEC50", "setting": "SSTR3; [2]", "value": -5.765},
      {"measurement": "Span", "setting": "SSTR3; [2]", "value": 89.66},
      {"measurement": "Top", "setting": "SSTR3; [2]", "value": 96.95},
      {"measurement": "Bottom", "setting": "SSTR3; [3]", "value": -24.33},
      {"measurement": "LogEC50", "setting": "SSTR3; [3]", "value": -7.352},
      {"measurement": "Span", "setting": "SSTR3; [3]", "value": 140.2},
      {"measurement": "Top", "setting": "SSTR3; [3]", "value": 115.9},
      {"measurement": "EC50", "setting": "SSTR3; best-fit, SSTR3 WT-1 (H192T set), read-out: EC50", "value": 44.5, "unit": "nM"},
      {"measurement": "Bottom", "setting": "SSTR3; [4]", "value": 2.721},
      {"measurement": "LogEC50", "setting": "SSTR3; [4]", "value": -7.195},
      {"measurement": "Span", "setting": "SSTR3; [4]", "value": 103.1},
      {"measurement": "Top", "setting": "SSTR3; [4]", "value": 105.9},
      {"measurement": "EC50", "setting": "SSTR3; best-fit, SSTR3 WT-1 (M193I set), read-out: EC50", "value": 63.8, "unit": "nM"},
      {"measurement": "Bottom", "setting": "SSTR3; [5]", "value": 2.721},
      {"measurement": "LogEC50", "setting": "SSTR3; [5]", "value": -7.195},
      {"measurement": "Span", "setting": "SSTR3; [5]", "value": 103.1},
      {"measurement": "Top", "setting": "SSTR3; [5]", "value": 105.9},
      {"measurement": "EC50", "setting": "SSTR3; best-fit, SSTR3 WT-1 (N101V set), read-out: EC50", "value": 63.8, "unit": "nM"},
      {"measurement": "Bottom", "setting": "SSTR3; [6]", "value": 2.721},
      {"measurement": "LogEC50", "setting": "SSTR3; [6]", "value": -7.195},
      {"measurement": "Span", "setting": "SSTR3; [6]", "value": 103.1},
      {"measurement": "Top", "setting": "SSTR3; [6]", "value": 105.9},
      {"measurement": "EC50", "setting": "SSTR3; best-fit, SSTR3 WT-2 (F296D set), read-out: EC50", "value": 63.8, "unit": "nM"},
      {"measurement": "Bottom", "setting": "SSTR3; [7]", "value": -19.9},
      {"measurement": "LogEC50", "setting": "SSTR3; [7]", "value": -7.557},
      {"measurement": "Span", "setting": "SSTR3; [7]", "value": 137.3},
      {"measurement": "Top", "setting": "SSTR3; [7]", "value": 117.4},
      {"measurement": "EC50", "setting": "SSTR3; best-fit, SSTR3 WT-2 (H192T set), read-out: EC50", "value": 27.7, "unit": "nM"},
      {"measurement": "Bottom", "setting": "SSTR3; [8]", "value": -0.9229},
      {"measurement": "LogEC50", "setting": "SSTR3; [8]", "value": -7.198},
      {"measurement": "Span", "setting": "SSTR3; [8]", "value": 106.7},
      {"measurement": "Top", "setting": "SSTR3; [8]", "value": 105.8},
      {"measurement": "EC50", "setting": "SSTR3; best-fit, SSTR3 WT-2 (M193I set), read-out: EC50", "value": 63.4, "unit": "nM"},
      {"measurement": "Bottom", "setting": "SSTR3; [9]", "value": -0.442},
      {"measurement": "LogEC50", "setting": "SSTR3; [9]", "value": -8.585},
      {"measurement": "Span", "setting": "SSTR3; [9]", "value": 97.55},
      {"measurement": "Top", "setting": "SSTR3; [9]", "value": 97.11},
      {"measurement": "Bottom", "setting": "SSTR3; [10]", "value": -0.9229},
      {"measurement": "LogEC50", "setting": "SSTR3; [10]", "value": -7.198},
      {"measurement": "Span", "setting": "SSTR3; [10]", "value": 106.7},
      {"measurement": "Top", "setting": "SSTR3; [10]", "value": 105.8},
      {"measurement": "EC50", "setting": "SSTR3; best-fit, SSTR3 WT-3 (F296D set), read-out: EC50", "value": 63.4, "unit": "nM"},
      {"measurement": "Bottom", "setting": "SSTR3; [11]", "value": -0.442},
      {"measurement": "LogEC50", "setting": "SSTR3; [11]", "value": -8.585},
      {"measurement": "Span", "setting": "SSTR3; [11]", "value": 97.55},
      {"measurement": "Top", "setting": "SSTR3; [11]", "value": 97.11},
      {"measurement": "Bottom", "setting": "SSTR3; [12]", "value": -0.9229},
      {"measurement": "LogEC50", "setting": "SSTR3; [12]", "value": -7.198},
      {"measurement": "Span", "setting": "SSTR3; [12]", "value": 106.7},
      {"measurement": "Top", "setting": "SSTR3; [12]", "value": 105.8},
      {"measurement": "EC50", "setting": "SSTR3; best-fit, SSTR3 WT-3 (N101V set), read-out: EC50", "value": 63.4, "unit": "nM"},
      {"measurement": "β-arrestin recruitment with GRK2", "setting": "SSTR2", "value": "influenced paltusotine induced β-arrestin recruitment"}
    ]}
  ]
}
